According to patent US20240350458A1, “14-3-3 PROTEIN MODULATORS AS ANTITUMOR AGENTS” (priority 2021, published 2024):

Test system: CYP450 (CYP1A2, CYP2C9, CYP2C19, CYP2D6, CYP3A4)
Experiment: CYP450 inhibition (ADME-TOX profiling)
Format: in vitro ADME
Settings: 10 μM
Procedure: To assess the ADME-TOX profile of selected compounds (FC91, FC86, FC85, a full panel of in vitro assays was performed as reported in Runfola et al. [Runfola M, Sestito S, Gul S, Chiellini G, Rapposelli S: Collecting data through high throughput in vitro early toxicity and off-target liability assays to rapidly identify limitations of novel thyromimetics. Data in brief 2020, 29:105206.]. Cytotoxic effects were evaluated on 4 different cell lines (U2OS, hTERT, HEK293, MCF-7) at 24 h and 48 h after treatment with tested compounds. Cardiac toxicity was assessed evaluating the inhibition effect of compounds on the hERG ion-channel, which is responsible of the withdrawn of several drugs in clinical trials. Metabolic interference was evaluated testing inhibitory effects of new compounds on five isoforms of CYP450 (CYP1A2, CYP2C9, CYP2C19, CYP2D6, CYP3A4). To assess off-target liabilities, the inhibitory effects have been assessed against several well-known off-targets. In particular, HDAC4, HDAC6, HDAC8, HDAC9, and SIRT7 were chosen as representatives of an undesirable epigenetic modulation. Moreover, compounds were screened against phosphodiesterase (PDE4C1), known for its role in cell survival and tumorigenesis. […] The data were collected and analyzed in the form of a traffic-light system using criteria shown below.

Cc1ccc(S(=O)(=O)Nc2ccc3c(c2)/C(=C/c2cccs2)C(=O)N3)cc1 [FC86, N-[(3Z)-2-oxo-3-(thiophene-2-ylmethylidene)-2,3-dihydro-1H-indol-5-yl]-4-methylbenzenesulfonamide]
inhibitory effect on CYP450 isoforms: did not show inhibitory effect
